The data set concerns GENE-TOX genotoxicity assays, various organisms and cells. The data set can be described thus: GENE-TOX mutagenicity studies. Conditions: for call: Assay Type: In vivo carcinogenicity studies, Assay Code: CCG+.
The mark [1] stands for this setting: Species/Cell Type: Allium cepa, Assay Type: Chromosome aberrations, Assay Code: ALC+D, Dose Response: With dose response, Evaluation Type: Evaluation A (Pre-1980).
Where [2] appears, read: Species/Cell Type: Mammalian polychromatic erythrocytes, Assay Type: Micronucleus test, chromosome aberrations, Assay Code: MNT+, Evaluation Type: Evaluation B (Post-1980).
[3] abbreviates: Species/Cell Type: Nonhuman, Assay Type: Sister-chromatid exchange (SCE) in vitro, Assay Code: SC2+D, Dose Response: With dose response, Evaluation Type: Evaluation B (Post-1980).
The mark [4] stands for this setting: Species/Cell Type: Salmonella typhimurium (one or more of the five standard strains: TA98, TA100, TA1535, TA1537, and TA1538), Assay Type: Histidine reverse gene mutation, Ames assay, Assay Code: SALT, Evaluation Type: Evaluation A (Pre-1980).
[5] abbreviates: Species/Cell Type: Saccharomyces cerevisiae, Assay Type: Mitotic recombination or gene conversion, Assay Code: YEH-, Evaluation Type: Evaluation A (Pre-1980).
Where [6] appears, read: Species/Cell Type: Drosophila melanogaster, Assay Type: Sex-linked recessive lethal gene mutation, Assay Code: SRLT, Evaluation Type: Evaluation A (Pre-1980).
The mark [7] stands for this setting: Species/Cell Type: Salmonella typhimurium (one or more of the five standard strains: TA98, TA100, TA1535, TA1537, and TA1538), Assay Type: Histidine reverse gene mutation, Ames assay, Assay Code: SAL+, Evaluation Type: Evaluation A (Pre-1980).
Setting [8] is: Species/Cell Type: Salmonella typhimurium (one or more of the five standard strains: TA98, TA100, TA1535, TA1537, and TA1538), Assay Type: Histidine reverse gene mutation, Ames assay, Assay Code: SAL+*, Activation: With metabolic activation, Evaluation Type: Evaluation A (Pre-1980).
[9] abbreviates: Species/Cell Type: Nonhuman, Evaluation Type: Evaluation A (Pre-1980).
[10] abbreviates: Species/Cell Type: Escherichia coli polA (W3119 vs P3478), Assay Type: Rec-assay, DNA effects (bacterial DNA repair), Assay Code: RE1T, Evaluation Type: Evaluation A (Pre-1980).

The source made the active and inactive calls. The rule behind the calls is not given here.

Drawing on PubChem BioAssay AID1259408 (Genetic Toxicology Data Bank (GENE-TOX), 2018), this text covers mutagenic call and call for 24 compounds.

`CO[C@H](C)[C@](O)(C(=O)OCC1=CCN2CC[C@H](O)[C@@H]12)C(C)C`: the mutagenic call under setting [1] is “active; positive”; the mutagenic call (Species/Cell Type: Aspergillus nidulans, Assay Type: Forward gene mutation, Assay Code: ASF+, Evaluation Type: Evaluation A (Pre-1980)) is “active; positive”; the mutagenic call (Species/Cell Type: Drosophila melanogaster, Assay Type: Aneuploidy, sex chromosome gain, chromosome aberrations, Assay Code: DAGT, Evaluation Type: Evaluation A (Pre-1980)) is listed as “no conclusion”; the mutagenic call (Species/Cell Type: Drosophila melanogaster, Assay Type: Aneuploidy, whole sex chromosome loss, chromosome aberrations, Assay Code: DAC+M, Evaluation Type: Evaluation A (Pre-1980)) was “active; positive”; the mutagenic call (Species/Cell Type: Drosophila melanogaster, Assay Type: Sex-linked recessive lethal gene mutation, Assay Code: SRL+, Evaluation Type: Evaluation A (Pre-1980)) was “active; positive”; the mutagenic call (Species/Cell Type: Drosophila melanogaster, Sex: Male, Assay Type: Heritable translocation test, chromosome aberrations, Assay Code: DHTT, Evaluation Type: Evaluation A (Pre-1980)) was “no conclusion”. Moreover, the mutagenic call is, setting by setting: under setting [2], “active; positive”; under setting [3], “active; positive”.

On to `CCN(CC)CCn1c2ccc(C)c3c2c([n+]1[O-])-c1ccc(Cl)cc1S3`, for which the mutagenic call under setting [4] was “no conclusion”.

On to `CC1=C(O)C(=O)C(C2=C(O)C(=O)C(C)=C(O)C2=O)=C(O)C1=O`, for which the mutagenic call is, setting by setting: under setting [5], “inactive; negative”; under setting [4], “no conclusion”.

With `CS(=O)(=O)OC/C=C\COS(C)(=O)=O`, under setting [6], the mutagenic call is “no conclusion”.

Take `COc1ccc(CCC(=O)c2c(O)cc(O)cc2O)cc1O`: where the note is “Species/Cell Type: Mammalian polychromatic erythrocytes, Assay Type: Micronucleus test, chromosome aberrations, Assay Code: MNTT, Evaluation Type: Evaluation B (Post-1980)”, the mutagenic call was “no conclusion”.

For the compound `CCCCCCCC(=O)N(C)N=O`, for the setting “Species/Cell Type: Saccharomyces cerevisiae, Assay Type: Mitotic recombination or gene conversion, Assay Code: YEH+, Evaluation Type: Evaluation A (Pre-1980)”, the mutagenic call was “active; positive”.

Turning to `CCCO`, for the setting “Species/Cell Type: Nonhuman, Assay Type: Sister-chromatid exchange (SCE) in vitro, Assay Code: SC2-, Evaluation Type: Evaluation A (Pre-1980)”, the mutagenic call was “inactive; negative”.

`CC(=O)O[C@H]1C[C@@H]2CC[C@@H]3[C@H](CC[C@@]4(C)[C@H]3C[C@H]([N+]3(C)CCCCC3)[C@@H]4OC(C)=O)[C@@]2(C)C[C@@H]1[N+]1(C)CCCCC1`: the mutagenic call under setting [4] is on record as “no conclusion”.

With `O=C(NO)c1ccc2ccccc2c1`, the mutagenic call under setting [3] was “active; positive” and the mutagenic call under setting [7] is “active; positive”.

Take `OC1c2ccccc2C2OC2[C@H]1O` (stereo not given in full): where the note is “Species/Cell Type: Escherichia coli polA (W3119 vs P3478), Assay Type: Rec-assay, DNA effects (bacterial DNA repair), Assay Code: RE1+, Evaluation Type: Evaluation A (Pre-1980)”, the mutagenic call was “active; positive”.

On to `O=C1c2cc(O)ccc2-c2ccc(O)c3cccc1c23`, for which the mutagenic call under setting [8] is “active; positive”.

Take `O=NN1CN2CN(C1)CN(N=O)C2`: the mutagenic call by setting is: (Species/Cell Type: Mammalian polychromatic erythrocytes, Assay Type: Micronucleus test, chromosome aberrations, Assay Code: MNTT, Evaluation Type: Evaluation A (Pre-1980)) “no conclusion”; (Species/Cell Type: Mouse embryo (AKR/ME) cells, Assay Type: Cell transformation, Assay Code: CTK-, Evaluation Type: Evaluation A (Pre-1980)) “inactive; negative”; under setting [3], “active; positive”.

Turning to `Nc1cc(S(=O)(=O)O)cc2c1C(=O)/C(=N/Nc1ccc(-c3ccc(N/N=C4/C(=O)c5c(N)cc(S(=O)(=O)O)cc5C=C4S(=O)(=O)O)cc3)cc1)C(S(=O)(=O)O)=C2`, the call under setting [9] is “active; positive”.

For the compound `Nc1ncnc2nc[nH]c12`, the mutagenic call by setting is: under setting [1], “active; positive”; under setting [6], “no conclusion”.

As for `CCCC(=O)C1c2cccc(O)c2C(=O)c2c(O)cccc21`, the mutagenic call (Species/Cell Type: Mammalian polychromatic erythrocytes, Assay Type: Micronucleus test, chromosome aberrations, Assay Code: MNT-, Evaluation Type: Evaluation B (Post-1980)) is “inactive; negative”.

In the case of `CC(C(=O)O)c1cccc(C(=O)c2ccccc2)c1` (stereo not given), the mutagenic call (Species/Cell Type: Human lymphocytes, Assay Type: Sister-chromatid exchange (SCE) in vivo, Assay Code: SCY+, Evaluation Type: Evaluation B (Post-1980)) was “active; positive”.

On to `CN(CCCCCC(=O)OC[C@H](N)C(=O)O)N=O`, for which the mutagenic call reads like this: (Species/Cell Type: Escherichia coli polA (W3110 vs P3478), Assay Type: Rec-assay, DNA effects (bacterial DNA repair), Assay Code: RE2T, Evaluation Type: Evaluation A (Pre-1980)) “no conclusion”; under setting [10], “no conclusion”.

Take `O=[N+]([O-])c1cccc2ncccc12`: the mutagenic call under setting [7] is “active; positive”.

`NC(=S)c1ccccc1`: the mutagenic call under setting [2] was “active; positive”.

In the case of `c1ccc2nc3ccccc3cc2c1`, for the setting “Species/Cell Type: Saccharomyces cerevisiae, Assay Type: Forward gene mutation, Assay Code: YEFT, Evaluation Type: Evaluation A (Pre-1980)”, the mutagenic call is “no conclusion”.

Take `C[C@@H]1CCCCN1N=O`: the call under setting [9] is “active; positive”.

As to `c1ccc2cc3c(ccc4ccccc43)cc2c1`, the mutagenic call was “active; positive” (Species/Cell Type: Chinese hamster lung (V79) cells, Assay Type: Forward gene mutation at the HPRT or ouabain locus, Assay Code: V79+*, Activation: With metabolic activation, Evaluation Type: Evaluation A (Pre-1980)); “no conclusion” under setting [6]; “no conclusion” under setting [10]; “active; positive” (Species/Cell Type: Fischer rat embryo (RLV/1706) cells, Assay Type: Cell transformation, viral enhanced, Assay Code: CTR+, Evaluation Type: Evaluation A (Pre-1980)); “no conclusion” (Species/Cell Type: Human diploid fibroblasts, Assay Type: Unscheduled DNA synthesis (UDS) in vitro, DNA effects, Assay Code: UDHT, Evaluation Type: Evaluation A (Pre-1980)); “inactive; negative” (Species/Cell Type: Mouse (BALB/c-3T3) cells, Assay Type: Cell transformation, Assay Code: CTB-, Evaluation Type: Evaluation A (Pre-1980)). Also, the mutagenic call by setting is: (Species/Cell Type: Mouse prostate cells, Assay Type: Cell transformation, Assay Code: CTM+, Evaluation Type: Evaluation A (Pre-1980)) “active; positive”; (Species/Cell Type: Nonhuman, Assay Type: Sister-chromatid exchange (SCE) in vitro, Assay Code: SC2+, Evaluation Type: Evaluation B (Post-1980)) “active; positive”; (Species/Cell Type: Nonhuman, Assay Type: Sister-chromatid exchange (SCE) in vivo, Assay Code: SC3+, Evaluation Type: Evaluation B (Post-1980)) “active; positive”; (Species/Cell Type: Nonhuman, Assay Type: Sister-chromatid exchange (SCE) in vivo, Assay Code: SC3T, Evaluation Type: Evaluation A (Pre-1980)) “no conclusion”; (Species/Cell Type: Rat primary hepatocytes, Assay Type: Unscheduled DNA synthesis (UDS) in vitro, DNA effects, Assay Code: UDP-, Evaluation Type: Evaluation A (Pre-1980)) “inactive; negative”; under setting [5], “inactive; negative”. Further, the mutagenic call by setting is: under setting [8], “active; positive”; (Species/Cell Type: Salmonella typhimurium, Assay Type: Forward and reverse gene mutation, host-mediated assay, Assay Code: HMA+, Evaluation Type: Evaluation A (Pre-1980)) “active; positive”; (Species/Cell Type: Syrian hamster embryo (SHE) cells, Assay Type: Cell transformation, clonal assay, Assay Code: CTC+, Evaluation Type: Evaluation A (Pre-1980)) “active; positive”. Further, the call under setting [9] was “active; positive”.

Take `CC[C@]1(O)C[C@@H]2CN(CCc3c([nH]c4ccccc34)[C@@](C(=O)OC)(c3cc4c(cc3OC)N(C)[C@H]3[C@@](O)(C(=O)OC)[C@H](OC(C)=O)[C@]5(CC)C=CCN6CC[C@]43[C@@H]65)C2)C1`: the mutagenic call is “active; positive” (Species/Cell Type: Mammalian polychromatic erythrocytes, Assay Type: Micronucleus test, chromosome aberrations, Assay Code: MNT+, Evaluation Type: Evaluation A (Pre-1980)); “active; positive” under setting [2]; “active; positive” (Species/Cell Type: Mouse, Sex: Male, Assay Type: Sperm morphology, Assay Code: SPI+, Evaluation Type: Evaluation A (Pre-1980)); “inactive; negative” (Species/Cell Type: Neurospora crassa, Assay Type: Aneuploidy, chromosome aberrations, Assay Code: NEN-, Evaluation Type: Evaluation A (Pre-1980)).

Consider `COC(=O)COc1ccc(Cl)cc1CCl` (tested in a mixture with another compound), for which the mutagenic call (Species/Cell Type: Saccharomyces cerevisiae, Assay Type: Reverse gene mutation, Assay Code: YERT, Evaluation Type: Evaluation A (Pre-1980)) was “no conclusion”.
